Source: article PMC12060420 (Cell Communication and Signaling : CCS, 2025)

Biological target: protein disulfide isomerase (PDI, PDIA1) (Homo sapiens, UniProt P07237)
Assay: surface plasmon resonance
Format: binding

Chain of protein disulfide isomerase (PDI, PDIA1) (P07237 18-508): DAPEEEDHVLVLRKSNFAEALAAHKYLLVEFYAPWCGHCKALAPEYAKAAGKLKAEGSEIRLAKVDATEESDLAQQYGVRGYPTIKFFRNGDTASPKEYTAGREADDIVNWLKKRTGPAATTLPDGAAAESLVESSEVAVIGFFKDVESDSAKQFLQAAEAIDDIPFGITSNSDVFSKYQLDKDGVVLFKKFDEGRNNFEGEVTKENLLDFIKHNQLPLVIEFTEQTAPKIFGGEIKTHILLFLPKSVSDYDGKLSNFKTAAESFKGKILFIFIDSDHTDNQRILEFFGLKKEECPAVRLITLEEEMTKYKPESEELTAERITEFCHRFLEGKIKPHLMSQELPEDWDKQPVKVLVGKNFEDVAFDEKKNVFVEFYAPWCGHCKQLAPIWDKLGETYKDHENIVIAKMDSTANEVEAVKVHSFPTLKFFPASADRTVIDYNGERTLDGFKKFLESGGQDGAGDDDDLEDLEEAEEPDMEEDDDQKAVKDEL

`Cc1c(-c2ccc(O)cc2)n(Cc2ccc(OCCN3CCCCCC3)cc2)c2ccc(O)cc12` [BAZ, bazedoxifene] showed a Kd of 3.3 nM.
